What is called IC50 is the point on the concentration scale where inhibition reaches its midpoint. Broadly, the MIC is the least concentration at which growth counts as inhibited. Broadly, the EC50 is the concentration needed to bring the measured effect to its halfway point.

The record followed here is ChEMBL document CHEMBL5113373, “Tryptophan derived natural marine alkaloids and synthetic derivatives as promising antimicrobial agents” (Eur J Med Chem, 2021).

The structures appear in SMILES notation. In brackets after ≈: the same amount, converted by molar mass.

The subject of assay [1] is Staphylococcus aureus. The assay is described as follows: Antibiofilm activity against Staphylococcus aureus ATCC 6538 assessed as inhibition of biofilm formation incubated for 24 hrs by crystal violet method. It is filed as functional, organism-based. The settings on record: ATCC 6538, 24 h.
Assay [2] deals with Candida albicans. The experiment in a line: Antifungal activity against Candida albicans assessed as fungal growth inhibition. The class given is functional, organism-based.
The next assay deals with Cryptococcus neoformans. The experiment in a line: Antifungal activity against Cryptococcus neoformans assessed as fungal growth inhibition. It is filed as functional, organism-based.
For a further assay, the system named is Pyricularia oryzae. The assay is described as follows: Antifungal activity against Pyricularia oryzae assessed as fungal growth inhibition incubated for 16 hrs by inverted microscopy. The class given is functional.
The next assay deals with Vibrio natriegens. The experiment in a line: Antimicrobial activity against Vibrio natriegens ATCC 14048 assessed as microbial growth inhibition incubated for 48 hrs by spectrophotometry. It is filed as functional.
The subject of the next assay is Aspergillus niger. The experiment in a line: Antifungal activity against Aspergillus niger assessed as fungal growth inhibition. It is filed as functional, organism-based.
In a further assay the test system is Micrococcus luteus. The assay is described as follows: Antibacterial activity against Micrococcus luteus assessed as bacterial growth inhibition. It is filed as functional, organism-based.
Another assay has as its system Mycolicibacterium phlei. The experiment in a line: Antibacterial activity against Mycobacterium phlei assessed as bacterial growth inhibition. The class given is functional, organism-based.
In the next assay the test system is Saccharomyces cerevisiae. The experiment in a line: Antifungal activity against Saccharomyces cerevisiae assessed as fungal growth inhibition. The class given is functional, organism-based.
The subject of assay [3] is Staphylococcus aureus. The assay is described as follows: Antimicrobial activity against methicillin-resistant Staphylococcus aureus assessed as microbial growth inhibition by broth microdilution method. The class given is functional. (In general: Broth dilution looks for growth in wells or tubes with falling amounts of substance.)
The subject of a further assay is Escherichia coli. The assay is described as follows: Antimicrobial activity against Escherichia coli assessed as microbial growth inhibition by microdilution method. The class given is functional.
The test system of assay [4] is Candida albicans. The assay is described as follows: Antimicrobial activity against Candida albicans assessed as microbial growth inhibition by microdilution method. It is filed as functional.
Assay [5] deals with Trichophyton mentagrophytes. The assay is described as follows: Antifungal activity against Trichophyton mentagrophytes assessed as fungal growth inhibition. It is filed as functional, organism-based.
Assay [6] concerns Staphylococcus aureus. The experiment in a line: Antibacterial activity against Staphylococcus aureus ATCC 16339 assessed as bacterial growth inhibition incubated for 24 hrs by broth micro dilution method. The class given is functional.
In a further assay the test system is Klebsiella pneumoniae. The experiment in a line: Antibacterial activity against Klebsiella pneumoniae ATCC 14578 assessed as bacterial growth inhibition incubated for 24 hrs by broth micro dilution method. It is filed as functional.
The subject of assay [7] is Acinetobacter baumannii. The assay is described as follows: Antibacterial activity against Acinetobacter baumannii ATCC 19606 assessed as bacterial growth inhibition incubated for 24 hrs by broth micro dilution method. It is filed as functional.
Assay [8] relates to Acinetobacter baumannii. The experiment in a line: Antibacterial activity against Acinetobacter baumannii ATCC 15122 assessed as bacterial growth inhibition incubated for 24 hrs by broth micro dilution method. It is filed as functional.
The subject of a further assay is Fusarium oxysporum. The assay is described as follows: Antifungal activity against Fusarium oxysporum Momordicae assessed as fungal growth inhibition incubated for 3 days by broth micro dilution method. It is filed as functional. The settings on record: 72 h, time 3 day.
For assay [9], the system named is Candida albicans. The assay is described as follows: Antifungal activity against Candida albicans ATCC 2091 assessed as fungal growth inhibition incubated for 24 hrs by agar diffusion method. The class given is functional. Background: A growth-free zone around the sample is the usual read-out of agar diffusion tests.
Assay [10] concerns Staphylococcus aureus. The experiment in a line: Antibacterial activity against Staphylococcus aureus ATCC 6538 assessed as bacterial growth inhibition incubated for 24 hrs by agar diffusion method. The class given is functional.
The subject of another assay is Pseudomonas aeruginosa. The experiment in a line: Antibacterial activity against Pseudomonas aeruginosa ATCC 9027 assessed as bacterial growth inhibition incubated for 24 hrs by agar diffusion method. The class given is functional.
The subject of another assay is Hepatitis C virus. The experiment in a line: Antiviral activity against HCV J8CC infected in human Huh7.5 cells assessed as viral growth inhibition incubated for 48 hrs by light microscopy. It is filed as functional, organism-based, Hepacivirus hominis. The settings on record: Huh7.5, 48 h.
Assay [11] concerns Staphylococcus aureus. The assay is described as follows: Antibacterial activity against Staphylococcus aureus assessed as bacterial growth inhibition. It is filed as functional, organism-based.
The next assay relates to Bacillus subtilis. The assay is described as follows: Antibacterial activity against Bacillus subtilis assessed as bacterial growth inhibition. The class given is functional, organism-based.
Assay [12] has as its system Mycobacterium tuberculosis. The assay is described as follows: Antibacterial activity against […] assessed as bacterial growth inhibition. It is filed as functional.
Assay [13] concerns Staphylococcus aureus. The assay is described as follows: Antimicrobial activity against Staphylococcus aureus ATCC 25923 assessed as zone of inhibition incubated for 24 hrs by disc diffusion method. The class given is functional.
The subject of assay [14] is Candida albicans. The assay is described as follows: Antimicrobial activity against Candida albicans ATCC 14053 assessed as zone of inhibition incubated for 24 hrs by disc diffusion method. It is filed as functional.
In assay [15] the test system is Acinetobacter baumannii. The experiment in a line: Antibiofilm activity against Acinetobacter baumannii ATCC 19606 assessed as inhibition of biofilm formation at 100 uM incubated for 24 hrs by crystal violet method relative to control. The class given is functional. Also on record: scale not given: the % may be the effect or the level left.

On to `COCCn1cc(-c2nc(-c3c[nH]c4ccccc34)cs2)c2cc(F)ccc21`, for which, in the assay with Staphylococcus aureus [1], the IC50 was determined as 0.7 µM.

For the compound `CSc1c(-c2c(-c3c[nH]c4ccc(O)cc34)c(=O)n3c4ccc(O)cc4c4cc(C(=O)O)nc2c43)[n+](C)cn1C`, the IC50 in the assay with Candida albicans [2] and with Cryptococcus neoformans was 14.5 µM throughout.

As for `CC(C)=CCn1cc(CC2NC(=O)C(C(C)C)NC2=O)c2ccccc21` (stereo unspecified), the MIC in the assay on Pyricularia oryzae was determined as 0.36 µM (≈ 0.127 µg/mL).

Consider `C/N=C1\NC(Cc2c[nH]c3cc(Br)c(Br)cc23)C(=O)N1C` (stereo unspecified), for which, in the assay with Vibrio natriegens, the MIC was determined as 2.4 µM (≈ 0.994 µg/mL).

`CC(C)CC(=O)Nc1c(O)c(C(C[N+](C)(C)C)c2c[nH]c3cc(Br)ccc23)c2ccnc3c2c1NC=C3` (stereo unspecified): the IC50 in the assay with Candida albicans [2] turned out to be 14.2 µM.

On to `C[N+](C)(C)CC(c1c[nH]c2cc(Br)ccc12)c1c2ccnc3c2c(c2nc(CS(=O)(=O)[O-])oc12)NC=C3` (stereo unspecified), for which, in the assay with Aspergillus niger, the MIC is 27.5 µM (≈ 16 µg/mL).

As to `C=CC(C)(C)c1c(CCNC)c2ccc(Br)cc2n1CC=C(C)C`, the IC50 in the assay with Micrococcus luteus was found to be 5.9 µM; in the assay on Mycolicibacterium phlei, 7.7 µM; in the assay on Saccharomyces cerevisiae it was 17.9 µM.

`Cc1cncc(Cc2c[nH]c3ccccc23)n1`: the values for the MIC in the assay on Staphylococcus aureus [3], with Escherichia coli and with Candida albicans [4] were 53.7 µM (≈ 12 µg/mL), 35.8 µM and 62.7 µM, respectively.

For the compound `C=CC(C)(C)c1c(CCNC)c2ccccc2n1CC=C(C)C`, the values for the IC50 in the assay on Micrococcus luteus and in the assay with Mycolicibacterium phlei were 22.6 µM and 7.7 µM, respectively.

`O=C1CN=C(c2c[nH]c3ccc(O)cc23)c2c(O)ccc3[nH]cc1c23`: in assay [5], the IC50 is 48.3 µM.

`O=C1N[C@]2(CO)c3[nH]c4ccccc4c3C[C@@H]1n1c2nc2ccccc2c1=O`: the MIC with Staphylococcus aureus [6] was determined as 16.8 µM (≈ 6.26 µg/mL); in the assay on Klebsiella pneumoniae, 16.8 µM (≈ 6.26 µg/mL); with Acinetobacter baumannii [7], 16.8 µM (≈ 6.26 µg/mL); in the assay on Acinetobacter baumannii [8], 16.8 µM (≈ 6.26 µg/mL); in the assay with Fusarium oxysporum, 4 µM (≈ 1.49 µg/mL).

As for `O=C(O)c1c(-c2c[nH]c3cc(O)ccc23)ncc2[nH]c3ccc(O)cc3c12`, the “diameter of the inhibition zone (DIZ)” value is given as 9 mm with Candida albicans [9], 10 mm in the assay with Staphylococcus aureus [10] and 7 mm with Pseudomonas aeruginosa.

On to `CC(C)[C@@H]1NC(=O)[C@@H](C[C@@]2(O)c3ccccc3N3C(=O)C(C)(C)N[C@@H]32)n2c1nc1ccccc1c2=O`, for which the EC50 in the assay on Hepatitis C virus is 129 µM.

On to `O=C1Nc2ccccc2[C@@]1(O)Cc1cncc(Cc2c[nH]c3ccccc23)n1`, for which the MIC in the assay with Staphylococcus aureus [3] came out at 32.4 µM (≈ 12 µg/mL); with Escherichia coli, 27 µM; with Candida albicans [4], 32.4 µM.

For `CSc1c(-c2c(-c3c[nH]c4ccc(O)cc34)c(=O)n3c4ccc(O)cc4c4ccnc2c43)[n+](C)cn1C`, the IC50 in the assay with Candida albicans [2] and in the assay on Cryptococcus neoformans was 7.9 µM throughout. Besides, in assay [5], the MIC is 31.5 µM.

Turning to `C[N+](C)(C)CC(c1c[nH]c2cc(Br)ccc12)c1c(O)c(O)c2c3c(nccc13)C=CN2` (stereo unspecified), the IC50 came out at 0.5 µM in the assay with Candida albicans [2]; 0.5 µM in the assay with Cryptococcus neoformans; 0.5 µM in assay [5]; 4.2 µM in the assay on Staphylococcus aureus [11]; 4.2 µM with Bacillus subtilis; 4.2 µM in the assay with Micrococcus luteus.

Turning to `O=C1N[C@@H](Cc2c[nH]c3ccccc23)C(=O)N2CCC[C@@H]12` [BREVIANAMIDE F], in [12], the MIC is 44.1 µM (≈ 12.5 µg/mL). Also, the “diameter of the inhibition zone (DIZ)” value in the assay on Staphylococcus aureus [13] was determined as 19 mm; in the assay with Candida albicans [14], 25 mm.

Consider `C=CC(C)(C)[C@@]12CCN(C)C1=Nc1cc(Br)ccc12` [FLUSTRAMINE C], for which the Activity with Acinetobacter baumannii [15] is on record as 30%.

As to `C[C@@H]1NC(=O)[C@@H](Cc2c[nH]c3ccccc23)n2c1nc1ccccc1c2=O` [FUMIQUINAZOLINE F], the results for the MIC in the assay with Staphylococcus aureus [11] and in the assay with Micrococcus luteus were 382 µM (≈ 137 µg/mL) and 276 µM (≈ 99 µg/mL), respectively.

For the compound `Brc1ccc2c(-c3c[nH]c(-c4c[nH]c5cc(Br)ccc45)n3)c[nH]c2c1` [NORTOPSENTIN A], the IC50 in the assay on Candida albicans [2] came to 6.8 µM.

`Brc1ccc2c(-c3nc(-c4c[nH]c5ccccc45)c[nH]3)c[nH]c2c1` [NORTOPSENTIN B]: the IC50 in the assay with Candida albicans [2] is 6.8 µM.

With `Brc1ccc2c(-c3c[nH]c(-c4c[nH]c5ccccc45)n3)c[nH]c2c1` [NORTOPSENTIN C], the IC50 in the assay on Candida albicans [2] worked out at 6.8 µM.
